What was measured:
Format in all cases: cell-based
[1] = tested on: cancer cell lines to human breast, prostate, ovarian, pancreatic and cervical cancers; test: Radiosensitisation of cancer cell lines on culture plates (cell viability by CellTiter, apoptosis by Hoechst 33342 dye); details: pre-treatment (1 day and 8 hour) and sequential/post-treatment (−30 min/+4 h) regimes, at 2 and 10 μM
Protocol: The effect of a selection of isoflavonoid compounds on various cancer cell lines subjected to radiotherapy was assessed on culture plates. Cell viability was determined using CellTiter®. Apoptosis was evaluated using Hoechst 33342 dye.
32 and 39 (at 2 and 10 μM).

cancer cells [2] = test: Synergistic interaction with death receptor ligands and growth receptor inhibitors; details: growth receptor inhibitors eg. of EGF, PDGF, FGF, TNF and IGF receptors
cancer cells [3] = test: Synergy with the chemotherapeutics cisplatin and gemcitabine

| Compound | radiosensitisation of cancer cell lines subjected to radiotherapy [1] | synergistic interaction with interferon-gamma, Fas ligand, TRAIL ligand, growth receptor inhibitors (cancer cells [2]) | synergy with the effect of chemotherapeutics such as cisplatin and gemcitabine (cancer cells [3]) |
| --- | --- | --- | --- |
| Oc1ccc(C2=Cc3ccc(O)cc3OC2)cc1 [Cpd. 12, dehydroequol] | radiosensitised | synergistic interaction | synergise |
| COc1ccc(C2c3ccc(O)c(C)c3OCC2c2ccc(O)cc2)cc1 (stereo not shown) [compound 39] | radiosensitised | synergistic interaction |  |
| COc1ccc(C2c3ccc(O)cc3OCC2c2ccc(O)cc2)cc1 (stereo not shown) [compound 32] | radiosensitised | synergistic interaction |  |

Source: patent US20060167037A1, “Combinational radiotherapy and chemotherapy compositions and methods” (priority 2003, published 2006)
